These results are taken from ChEMBL document CHEMBL1201862, “PubChem BioAssay data set” (2004).

Holding throughout (test): NCI-60 cell line screen, 48 h
The subject of test [1] is A498.
In test [2] the test system is LOX IMVI.
In test [3] the test system is SF-539.
Test [4] concerns MDA-N.
For test [5], the system named is MDA-MB-435.
Test [6] relates to ACHN.
In test [7] the test system is RPMI-8226.
Test [8] has as its system DLD-1.
Test [9] relates to SK-MEL-2.
Test [10] concerns UACC-62.
In test [11] the test system is UACC-257.
For test [12], the system named is OVCAR-5.
Test [13] deals with SF-268.
Test [14] deals with SR.
The test system of test [15] is HCT-116.
Test [16] relates to IGROV-1.
Test [17] relates to HCC 2998.
The subject of test [18] is MOLT-4.
The subject of test [19] is HOP-62.
In test [20] the test system is KM12.

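The compound was tested at five concentrations on cells cultured in 96-well plates, with a 48-hour exposure period. Here, GI50 denotes the concentration required for 50% inhibition of growth.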 The source made the active and inactive calls. Rule as the data show it: active = GI50 up to about 1.1 µM and inactive = higher.

As for `CCN(CC)CCCNc1ccc2nnn3c4ccc(O)cc4c(=O)c1c23`, the GI50 is 8.97 µM (inactive) in test [1]; 2.9 µM (inactive) in [2]; 10.3 µM (inactive) in test [3]; 8.71 µM (inactive) in test [4]; 10.2 µM (inactive) in [5]; 3.34 µM (inactive) in [6]. Also, the GI50 in test [7] is 3.28 µM (inactive); in [8], 3.48 µM (inactive); in [9] it was 15.1 µM (inactive); in [10], 16.6 µM (inactive); in test [11], 17.9 µM (inactive); in test [12] it was 13.8 µM (inactive). Besides, the GI50 in test [13] is 5.3 µM (inactive); in test [14], 1.69 µM (inactive); in test [15], 1.15 µM (inactive); in [16], 4.86 µM (inactive); in test [17] it was 9.06 µM (inactive); in test [18], 0.385 µM (active). For the same compound, the GI50 was 10.7 µM (inactive) in [19] and 6.61 µM (inactive) in [20].
